Measurements reported in US20040247703A1, “Composition for inhibiting glutamate-mediated neurotoxicity comprising ginsenoside Rg3 or ginsenoside Rh2” (priority 2002, published 2004).
pIC50: −log10 of the molar value.

Columns and labels:
NMDA receptor [1] = experiment: NMDA receptor-mediated Ca2+ influx by Ca2+-imaging technique (fura-2/AM) in cultured hippocampus nerve cells; assay type: cell-based, mouse; settings: for % inhibition of NMDA receptor-mediated [Ca^2+]i infulx: cultured mouse hippocampus nerve cell; for inhibition effect for NMDA receptor activity, screening of pure 20(S) compounds, in words: 9 kinds of 20(S) compounds, FIG. 5; for NMDA receptor-mediated Ca^2+ influx inhibition, comparison of isomer forms, in words: Table 1 comparison of 20(S)-form with mixture of S-form and R-form
Experimental: (§1) Hippocampus nerve tissues were separated from an 18-day-old fetus to 1-day-old newborn white mouse using a dissection microscope. The tissues were treated with Leibovitz L-15 medium (Gibco, Grand Island, N.Y.) including 0.05% papain at 37° C. for 20 minutes. Then, the solution was washed with Ca^2+ or Mg^2+ free Hank's Balanced Salt Solution (Gibco, Grand Island, N.Y.) several times, and the single hippocampus nerve cell was separated mechanically by adjusting the pore size of the Pasteur pipette. The cell was cultured on a cover slip that was treated with poly-L-lysine in a concentration of 1.5×10^5 cell/ml.
(§2) The cell was cultured in a culturing solution of Neurobasla/B27 (Gibco, Grand Island, N.Y.) to which 0.5 mM L-glutamine, 25 μM glutamate, 25 μM 2-mercaptoethanol, 100 U/ml penicillin and 100 μg/ml streptomycin were added. Half of the medium was replaced twice a week with a medium having no added glutamate. Cells that were cultured for 7 to 15 days were used in the experiment.
Fura-2/AM (Molecular probes: Eugene, Oreg.) of the acetoxymethyl-ester form was used as a fluorescent Ca^2+ label. The hippocampus nerve cell was primarily incubated with 5 μM fura-2/AM and 0.001% Pluronic F-127 in HEPES buffer solution (unit mM: 150 NaCl, 5 KCl, 1 MgCl2,2 CaCl2,10 HEPES, 10 glucose, pH 7.4) at room temperature for 40 to 60 minutes and then washed with the HEPES buffer solution several times. After stabilizing the cell for 10 minutes, the change in intracellular Ca ion concentration was determined using an inverted microscope.
Specifically, the cell was exposed selectively to the excitation wavelengths (340 nm and 380 nm) from a xenon arc lamp by a computer-controlled filter wheel (Sutter Instruments, CA). Data was obtained every 2 seconds and a shutter was placed at the light-exposed portion so as to prevent any photo-toxicity on the cell. Emitter fluorescence light, which passed through a 515 nm long-pass filter, reached a cooling CCD camera. The ratios of intensity (340/380 nm) were converted to intracellular free Ca^2+ concentration ([Ca^2+]i) by digital fluorescence analyzer. Analysis of all image data was performed using Universal Imaging software (West Chester, Pa.).
Method for screening NMDA receptor inhibitor via NMDA receptor activity in a hippocampus nerve cell was performed by a Ca^2+-imaging technique using a Ca-dependent dye, fura-2/AM, as explained in Example 2.
Therefore, the system was used in the NMDA receptor inhibitor screening of ginseng components.
As stated above, the experiments of FIGS. 2A to 2C were to determine Ca^2+ influx caused by NMDA activity, when NMDA was administered to the cultured hippocampus nerve cell (5˜10 seconds), by using the Ca^2+-imaging technique. […]

[2] = tested on: white mouse hippocampus nerve cells; experiment: MTT assay, survival of nerve cells against cytotoxicity by NMDA; assay type: cell-based; settings: pretreated 1 minute, NMDA 10 minutes, MTT after 24 hours; 100 μg/ml GTS, 10 μM Rg3; FIG. 3
Experimental: 3-(4,5-dimethylthiazole-2-yl)-2,5-diphenyltetrazolium bromide (MTT) assay was carried out to determine the survival rate of cells against cytotoxicity by NMDA in nerve cells. Primarily cultured white mouse hippocampus nerve cells were cultured in a 24-well plate, to which a Neurobasal/B27 (Gibco, Grand Island N.Y.) medium including 0.5 mM L-glutamine, 25 μM glutamate, 25 μM 2-mercaptoethanol, 100 U/ml penicillin and 100 μg/ml streptomycin was added for 6-14 days. The cells were pretreated with 100 μg/ml GTS and 10 μM Rg3 using a Mg^2+ free HEPES buffered solution including 1 μM glycine for 1 minute and then treated with NMDA for 10 minutes. Thereafter, the medium was exchanged with the normal culture medium. Twenty-four hours after such treatment, the cells were treated directly with a 50 μl MTT solution in phosphate buffered saline (PBS) (1 mg/ml). Four hours after MTT treatment, the supernatant was removed, and the produced formazan was resolved in 100 μl dimethylsulfoxide (DMSO). Optical density at 560 nm was read using an automated spectrophotometric plate reader.

hippocampus nerve cells = settings: literature (Lim, J. H. et al. 1997); cited from earlier work
cultured cortical neuron = settings: literature (Kim, Y. C. et al. 1998); cited from earlier work
NMDA receptor [3] = experiment: NMDA receptor-mediated membrane current by whole-cell patch-clamp in hippocampus nerve cells; assay type: cell-based, mouse; settings: 10 μM; FIG. 2D
Experimental: as §1
as §2, with “Cells that were cultured for 7 to 15 days were used in the experiment.” left out
Whole-cell voltage-clamp recordation was carried out using a perforated patch-clamp method. […] After 10 minutes, the membrane current was determined. […]
As a solution that allows only the monovalent ion to pass the membrane to produce an electric current, Nystatin stock solution of 25 mg/ml was diluted into a concentration of 250 μg/ml and added to the internal solution. […] The membrane voltage was recorded using an EPC-9 amplifier and Pulse/Pulsefit software (HEKA, Germany). […]

SMILES	% inhibition of NMDA receptor-mediated [Ca^2+]i infulx (NMDA receptor [1]; 1 μM) [%]	inhibition effect for NMDA receptor activity, screening of pure 20(S) compounds, in words (NMDA receptor [1])	NMDA receptor-mediated Ca^2+ influx inhibition, comparison of isomer forms, in words (NMDA receptor [1])	cell viability against neurotoxicity caused by NMDA, in words [2]	glutamate-induced neurotoxicity in cultured cortical neuron, in words (cultured cortical neuron)	further results
CC(C)=CCC[C@](C)(O)[C@H]1CC[C@]2(C)[C@@H]1[C@H](O)C[C@@H]1[C@@]3(C)CC[C@H](O[C@@H]4O[C@H](CO)[C@@H](O)[C@H](O)[C@H]4O[C@@H]4O[C@H](CO)[C@@H](O)[C@H](O)[C@H]4O)C(C)(C)[C@@H]3CC[C@]12C [20(S)-ginsenoside Rg3]	30.4 ± 2.3	most excellent inhibition effect				
CC(C)=CCC[C@](C)(O)[C@H]1CC[C@]2(C)[C@@H]1[C@H](O)C[C@@H]1[C@@]3(C)CC[C@H](O[C@@H]4O[C@H](CO)[C@@H](O)[C@H](O)[C@H]4O)C(C)(C)[C@@H]3CC[C@]12C [20(S)-ginsenoside Rh2]	47.1 ± 4.3	most excellent inhibition effect	superior effect to the mixture of S-form and R-form isomers			
N[C@H](CCCP(=O)(O)O)C(=O)O [D-APV, D(−)-2-amino-5-phosphono-pentanoic acid, reference compound]				effectively increase cell viability		Ca^2+ concentration ([Ca^2+]i) after NMDA application, in words (NMDA receptor [1]; FIG. 1, repeated NMDA applications): significantly decreased
CC(C)=CCC[C@](C)(O[C@@H]1O[C@H](CO[C@@H]2O[C@H](CO)[C@@H](O)[C@H](O)[C@H]2O)[C@@H](O)[C@H](O)[C@H]1O)[C@H]1CC[C@]2(C)[C@@H]1[C@H](O)C[C@@H]1[C@@]3(C)CC[C@H](O[C@@H]4O[C@H](CO)[C@@H](O)[C@H](O)[C@H]4O[C@@H]4O[C@H](CO)[C@@H](O)[C@H](O)[C@H]4O)C(C)(C)[C@@H]3CC[C@]12C [ginsenoside Rb1, reference compound]					inhibited	death of hippocampus nerve cells during cerebral ischemia, in words (hippocampus nerve cells): inhibits death of hippocampus nerve cells
CC(C)=CCC[C@](C)(O)[C@H]1CC[C@]2(C)[C@@H]1[C@H](O)C[C@@H]1[C@@]3(C)CC[C@H](O[C@@H]4O[C@H](CO)[C@@H](O)[C@H](O)[C@H]4O[C@@H]4O[C@H](CO)[C@@H](O)[C@H](O)[C@H]4O)C(C)(C)[C@@H]3CC[C@]12C [ginsenoside Rg3]	31.2 ± 2.5		equivalent efficacy regardless of an S-form or R-form isomer and their mixture	effectively increase cell viability	inhibited	NMDA receptor inhibition efficiency, screening of 10 ginsenosides, in words (NMDA receptor [1]; 10 μM, ginsenosides including isomers of C-20 position, FIGS. 2A and 2B): superior to those of other ginsenosides; pIC50 (NMDA receptor [1]; Ca2+ influx on NMDA in cultured hippocampus nerve cell, read-out: IC50 of NMDA receptor inhibition (concentration dependence, FIG. 2C)): 5.42; NMDA receptor-mediated inward current, in words (NMDA receptor [3]): inhibits the inward current
CC(C)=CCC[C@](C)(O)[C@H]1CC[C@]2(C)[C@@H]1[C@H](O)C[C@@H]1[C@@]3(C)CC[C@H](O[C@@H]4O[C@H](CO)[C@@H](O)[C@H](O)[C@H]4O)C(C)(C)[C@@H]3CC[C@]12C [ginsenoside Rh2]						% inhibition of NMDA receptor-mediated [Ca^2+]i infulx (NMDA receptor [1]; 10 μM): 18.6 ± 2.7 %
